Results from US6358883B1, “Pesticidal and parasiticidal use of 1-aryl-1-(substituted thio, sulfinyl and sulfonyl)-2-nitroethane compounds” (American Cyanamid Company, priority 1998, dated 2002).

Key:
Type in all cases: in vivo
[1] = tested on: Aphis gossypii, cotton aphid (CA); assay: Cotton aphid (CA) cotyledon dip test; set-up: key: 0 = no effect; 1 = 10-25% kill; 2 = 26-35% kill; 3 = 36-45% kill; 4 = 46-55% kill; 5 = 56-65% kill; 6 = 66-75% kill; 7 = 76-85% kill; 8 = 86-99% kill; 9 = 100% kill; details: mortality after 5 days
Method: Test solutions are prepared by dissolving the test compound in a 35% acetone in water mixture to give a concentration of 10,000 ppm. Subsequent dilutions are made with water as needed. Aphis gossypii, Cotton Aphid (CA) Cotton plants at the cotyledon stage are selected and cut back to one plant per pot. A heavily infested leaf is taken from the main colony and placed on top of each cotyledon. The aphids are allowed to transfer to the host plant overnight. At the time of test treatment, the leaf used to transfer the aphids is removed and discarded. The cotyledons are dipped in the test solution and allowed to dry. After 5 days, mortality counts are made. [table]

[2] = tested on: M. incognita (Root Knot Nematode) larvae; assay: Evaluation of test compounds against M. incognita larvae in microtiter plate wells (movement score); details: larvae scored for movement after 20-24 hours; further: key: A score of '9' indicates inactive worms with a straight, sticklike morphology; A score of '8' indicates inactive worms with a limp, curled or curved morphology; A score of '7' indicates dead/paralyzed worms after 72 hours
Method: Evaluation of Test Compounds Against M. incognita (Root Knot Nematode)
Newly emerged M. incognita larvae are suspended in S Medium (buffered salt solution) to a concentration of 50-65 worms per 50 μl. 50 μl of the worm suspension are pipetted into microtiter plate wells containing the test compounds. The plates are then covered with plactic plate sealers to reduce loss of volume by evaporation. After 20-24 hours of incubation, the larvae are scored for movement. Wells containing obviously dead/paralyzed larvae are scored as positive. […] A score of “7” indicates dead/paralyzed worms after […].

[3] = tested on: Diabrotica virgifera virgifera Leconte, 2nd instar western corn rootworm (WCR); assay: Western corn rootworm (WCR) soil test; set-up: key: 0 = no effect; 1 = 10-25% kill; 2 = 26-35% kill; 3 = 36-45% kill; 4 = 46-55% kill; 5 = 56-65% kill; 6 = 66-75% kill; 7 = 76-85% kill; 8 = 86-99% kill; 9 = 100% kill
Method: Test solutions are prepared by dissolving the test compound in a 35% acetone in water mixture to give a concentration of 10,000 ppm. Subsequent dilutions are made with water as needed. Diabrotica virgifera virgifera Leconte, 2nd Instar Western Corn Rootworm (WCR) One cc of fine talc is placed in a 30 mL wide-mouth screw-top glass jar. One mL of the appropriate acetone test solution is pipetted onto the talc so as to provide 1.25 mg of active ingredient per jar. The jars are set under a gentle air flow until the acetone is evaporated. The dried talc is loosened, 1 cc of millet seed is added to serve as food for the insects and 25 mL of moist soil is added to each jar. The jar is capped and the contents thoroughly mixed mechanically. Following this, ten 2nd instar rootworms are added to each jar and the jars are loosely capped to allow air exchange for the larvae. The treatments are held for 5 days when mortality counts are made. Missing larvae are presumed dead, since they decompose rapidly and cannot be found. The concentrations of active ingredient used in this test correspond approximately to 50 kg/ha. [table]

[4] = tested on: Spodoptera eridania, 2nd instar larvae, southern armyworm (SAW); assay: Southern armyworm (SAW) leaf dip test; set-up: key: 0 = no effect; 1 = 10-25% kill; 2 = 26-35% kill; 3 = 36-45% kill; 4 = 46-55% kill; 5 = 56-65% kill; 6 = 66-75% kill; 7 = 76-85% kill; 8 = 86-99% kill; 9 = 100% kill
Method: (§1) Test solutions are prepared by dissolving the test compound in a 35% acetone in water mixture to give a concentration of 10,000 ppm. Subsequent dilutions are made with water as needed.
Spodoptera eridania, 2nd Instar Larvae, Southern Armyworm (SAW)
A Sieva lima bean leaf expanded to 7-8 cm in length is dipped in the test solution with agitation for 3 seconds and allowed to dry in a hood. The leaf is then placed in a 100×10 mm petri dish containing a damp filter paper on the bottom and ten 2nd instar caterpillars. At 5 days, observations are made of mortality, reduced feeding, or any interference with normal molting.

[5] = tested on: Tetranychus urticae (OP-resistant strain), 2-spotted spider mite (TSM); assay: 2-spotted spider mite (TSM) plant dip test; set-up: key: 0 = no effect; 1 = 10-25% kill; 2 = 26-35% kill; 3 = 36-45% kill; 4 = 46-55% kill; 5 = 56-65% kill; 6 = 66-75% kill; 7 = 76-85% kill; 8 = 86-99% kill; 9 = 100% kill; details: mortality after 2 days
Method: as §1
Tetranychus urticae (OP-resistant strain), 2-spotted Spider Mite (TSM)
Sieva lima bean plants with primary leaves expanded to 7-8 cm are selected and cut back to one plant per pot. A small piece is cut from an infested leaf taken from the main colony and placed on each leaf of the test plants. This is done about 2 hours before treatment to allow the mites to move over to the test plant to lay eggs. The size of the cut, infested leaf is varied to obtain about 100 mites per leaf. At the time of test treatment, the piece of leaf used to transfer the mites is removed and discarded. The newly-infested plants are dipped in the test solution for 3 seconds with agitation and set in the hood to dry. After 2 days, one leaf is removed and mortality counts are made.

[6] = tested on: C. elegans (Bristol strain); assay: Evaluation of test compounds against C. elegans (motility, 96-well plate); set-up: key: 9=complete kill in 4 hours; 8=complete kill in 24 hours; 7=markedly reduced motility in approximately 95% of worms in 24 hours; 0=normal motility, same as controls; details: motility at 4 and 24 hours
Method: Evaluation of Test Compounds Against C. elegans Cultures of C. elegans (Bristol strain from J. Lewis) are maintained on E. coli lawns on NG Agar Plates at 20° C. New cultures are established weekly. Nematodes for testing are washed from cultures using Na buffer. Compounds are dissolved in 80% acetone. The test material is micropipetted (25 μl) into a single well of a 96-well sterile tissue culture plate and the solvent allowed to evaporate. A freshly prepared volume (50 μl) of C. elegans in Na buffer is micropipetted into each treated well and several control wells per plate. Plates are incubated at 20° C. Observations for efficacy are made under a dissecting microscope at 4 and 24 hours post-immersion. Immediately prior to reading the plate, it is gently tapped to stimulate the movement of the worms. Activity is judged subjectively, but semi-quantitatively, based on the drug effects on motility of the adults and larvae.

| SMILES | CA (300 ppm) rating [1] | M. incognita (150 ppm) score [2] | WCR (50 ppm) rating [3] | SAW (300 ppm) rating [4] | TSM (300 ppm) rating [5] | Rating Against C. elegans (150 ppm) [6] |
| --- | --- | --- | --- | --- | --- | --- |
| CC(C)c1ccc(C(C[N+](=O)[O-])SCC(=O)O)cc1 (stereo not drawn) [Example 66] | 0 | 9 | 8 (8 = 86-99% kill) | 0 | 0 | 9 |
| O=C(O)CSC(C[N+](=O)[O-])c1ccc(Cl)cc1 (stereo not drawn) [Example 78] | 0 | 9 | 0 | 0 | 0 | 7 |
| CC(C)CCCCCOC(=O)CSC(C[N+](=O)[O-])c1ccc(Cl)cc1 (stereo not drawn) [Example 73] | 0 | 0 | 0 | 0 | 0 | 0 |
| CCCCC(CC)COC(=O)CSC(C[N+](=O)[O-])c1ccc(Cl)cc1 (stereo not drawn) [Example 74] | 0 | 0 | 0 | 0 | 0 | 0 |
| O=C(O)CSC(C[N+](=O)[O-])c1ccc2c(c1)OCO2 (stereo not drawn) [Example 64] | 0 | 9 | 0 | 0 | 9 (9 = 100% kill) | 9 |
| COc1ccc(C(C[N+](=O)[O-])SCC(=O)O)cc1 (stereo not drawn) [Example 69] | 0 | 9 | 0 | 0 | 0 | 9 |
| CCOC(=O)CSC(C[N+](=O)[O-])c1ccc(Cl)cc1 (stereo not drawn) [Example 71] | 0 | 0 | 0 | 0 | 0 | 7 |
| O=C(O)CSC(C[N+](=O)[O-])c1ccccc1F (stereo not drawn) [Example 67] | 0 | 9 | 9 (9 = 100% kill) | 0 | 0 | 9 |
| O=[N+]([O-])CC(SCc1ccccc1)c1ccc(Cl)cc1 (stereo not drawn) [Example 75] | 0 | 0 | 0 | 0 | 0 | 0 |
| Cc1ccc(C(C[N+](=O)[O-])SCC(=O)O)cc1 (stereo not drawn) [Example 65] | 0 | 9 | 9 (9 = 100% kill) | 0 | 0 | 9 |
| COc1cccc(C(C[N+](=O)[O-])SCC(=O)O)c1 (stereo not drawn) [Example 68] | 0 | 9 | 3 (3 = 36-45% kill) | 0 | 0 | 8 |
